How the values were obtained:
RORγ = target: T1, RORγ (Homo sapiens, UniProt P51449); test: RORγ GAL4 reporter gene assay; format: cell-based; details: inhibition of RORγ activity, GAL4-RORγ-LBD luciferase reporter in 293FT cells, overnight incubation; read-out: mean pIC50 (converted)
T1 construct: expressed in transfected cells; host or cells: 293FT cells (Invitrogen), expression vector pFN26A (Promega)
T1 sequence (P51449 269-508 limits assumed): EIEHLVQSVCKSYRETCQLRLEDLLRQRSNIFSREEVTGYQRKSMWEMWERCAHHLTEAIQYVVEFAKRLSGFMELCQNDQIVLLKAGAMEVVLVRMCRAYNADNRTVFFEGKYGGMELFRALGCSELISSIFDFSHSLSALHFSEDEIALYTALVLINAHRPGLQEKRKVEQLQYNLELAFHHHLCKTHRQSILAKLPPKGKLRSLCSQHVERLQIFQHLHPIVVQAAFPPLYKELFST
In short: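 293FT cells were transiently co-transfected with GAL4-DBD–RORγ-LBD (or GAL4-VP16 control) and a 9×UAS luc2P reporter, then plated at 60,000 cells/well. Compound was added at final 0.2% DMSO for 16-24 h at 37 °C, and inhibition was measured by firefly luciferase luminescence.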

[1] = tested on: IL-17A production in anti-CD3/anti-CD28 stimulated peripheral blood mononuclear cells (PBMCs); test: Peripheral blood mononuclear cell (PBMC) IL-17 assay; format: cell-based; details: Homo sapiens, 120 h, inhibition of IL-17A production, PBMCs isolated from human blood, 5 days incubation, IL-17 ELISA, read-out: mean pIC50 (converted)
Procedure: PBMC IL-17 Assay Description
This assay is designed to measure the levels of IL-17A secreted from anti-CD3/anti-CD28 stimulated PBMCs with the aim of measuring RORγ mediated inhibition of IL-17A production.
The assay medium consists of 90% RPMI 1640 (Lonza), 10% heat inactivated fetal bovin serum (FBS, Lonza) and 100 U/mL penicillin/streptomycin solution.
Anti-CD3 antibody (BD Pharmingen) was diluted to 10 μg/ml in PBS (Lonza). 30 μL of 10 μg/ml anti-CD3 solution was added to the inner 60 wells, excluding any negative control wells, of a 96-well cell culture treated U-bottom plate (Greiner). Plates were incubated overnight (16-24 hours) at 37° C. and 5% CO2.
Peripheral blood mononuclear cells were separated from buffy coats (Sanquin) using Ficoll-Paque PREMIUM separation medium (GE Healthcare Life Sciences) according to manufacturer's protocol and re-suspended in assay medium at 37° C.
Test compounds were diluted, starting from a 10 mM dimethylsulfoxide (DMSO) stock solution, to serial dilutions in DMSO at 200× the final test concentration. Subsequently, these solutions were diluted in two dilution steps in assay medium to 10× the final test concentration. The DMSO concentration of the 10× test compound solution was 5%.
Anti-CD28 antibody (BD Pharmingen) was diluted to 20 μg/mL in PBS. The PBMCs were diluted to a concentration of 2.5×10^6 cells/mL in assay medium at 37° C.
For compound screening, the anti-CD3 coated plates were washed three times with PBS, the wells were subsequently aspirated using vacuum. To each screening well 80 μL of the PBMC suspension, 10 μL of the anti-CD28 solution and 10 μL of the 10× test compound solution was added, resulting in the final test concentration with 0.5% DMSO. All outer wells were filled with assay medium to prevent evaporation. Plates were incubated for 5 days at 37° C. and 5% CO2.
After incubation the plates were spun down at 1500 rpm for 4 minutes and the supernatant was collected. Subsequently, the IL-17A levels in the supernatants was determined using an IL-17 ELISA kit (human IL-17 DuoSet, R&D systems) according to manufacturer's protocol.
The half maximum inhibitory concentration ([…]) values for the test compounds were calculated from the IL-17A signal using GraphPad Prism software (GraphPad Software).

| Compound | IC50 (RORγ) [nM] | IC50 [1] [nM] |
| --- | --- | --- |
| CC(C)(NC(=O)c1ccc(NC(=O)Cc2ccc(S(=O)(=O)CC3CC3)cc2)cc1)c1ccccc1 [Example 6, 4-[2-(4-cyclopropylmethanesulfonylphenyl)acetamido]-N-(2-phenylpropan-2-yl)benzamide] | ≤ 100 | ≤ 1000 |
| CCCN(CC1CC1)C(=O)c1ccc(NC(=O)Cc2ccc(S(=O)(=O)CC3CC3)cc2)cc1 [Example 9, 4-[2-(4-cyclopropylmethanesulfonylphenyl)acetamido]-N-(cyclopropylmethyl)-N-propylbenzamide] | ≤ 100 | ≤ 1000 |
| CCN(C(=O)c1ccc(NC(=O)Cc2ccc(S(=O)(=O)NC3CC3)cc2)cc1)c1ccc(C)cc1 [Example 45, 4-{2-[4-(cyclopropylsulfamoyl)phenyl]acetamido}-N-ethyl-N-(4-methylphenyl) benzamide] | ≤ 10 | ≤ 1000 |
| C[C@H](NC(=O)c1ccc(NC(=O)Cc2ccc(S(=O)(=O)CC3CC3)cc2)cc1)c1ccccc1F [Example 71, 4-[2-(4-cyclopropylmethanesulfonylphenyl)acetamido]-N-[(1S)-1-(2-fluorophenyl)ethyl]benzamide] | ≤ 100 | ≤ 1000 |
| CCN(C(=O)c1ccc(NC(=O)Cc2ccc(S(=O)(=O)CC3CC3)cc2)cc1)c1ccon1 [Example 103, 4-[2-(4-cyclopropylmethanesulfonylphenyl)acetamido]-N-ethyl-N-(1,2-oxazol-3-yl)benzamide] | ≤ 10 | ≤ 1000 |
| CC(C)(C1CCCO1)N(C(=O)c1ccc(NC(=O)Cc2ccc(S(=O)(=O)CC3CC3)nc2)cc1)c1ccccc1 (centres unmarked) [Example 160, 4-[2-(6-cyclopropylmethanesulfonylpyridin-3-yl)acetamido]-N-[2-(oxolan-2-yl)propan-2-yl]-N-phenylbenzamide] | ≤ 100 |  |
| Cc1ccc(N(C(=O)c2ccc(NC(=O)Cc3ccc(S(=O)(=O)CC4CC4)nc3)cc2)C(C)(C)CO)cc1 [Example 161, 4-[2-(6-cyclopropylmethanesulfonylpyridin-3-yl)acetamido]-N-(1-hydroxy-2-methylpropan-2-yl)-N-(4-methylphenyl)benzamide] | ≤ 100 |  |
| CCN(C(=O)c1ccc(NC(=O)Cc2ccc(S(=O)(=O)CC3CC3)cc2)cc1C)c1ccccc1 [Example 162, 4-[2-(4-cyclopropylmethanesulfonylphenyl)acetamido]-N-ethyl-2-methyl-N-phenylbenzamide] | ≤ 100 |  |
| Cc1cc(NC(=O)Cc2ccc(S(=O)(=O)CC3CC3)cc2)ccc1C(=O)N(C)c1ccccc1C [Example 163, 4-[2-(4-cyclopropylmethanesulfonylphenyl)acetamido]-N,2-dimethyl-N-(2-methylphenyl)benzamide] | ≤ 10 |  |
| CCN(C(=O)c1ccc(NC(=O)Cc2ccc(S(=O)(=O)CC3CC3)cc2)cc1C)c1cccc(C)c1C [Example 164, 4-[2-(4-cyclopropylmethanesulfonylphenyl)acetamido]-N-(2,3-dimethylphenyl)-N-ethyl-2-methylbenzamide] | ≤ 10 |  |
| Cc1cc(NC(=O)Cc2ccc(S(=O)(=O)CC3CC3)cc2)ccc1C(=O)N(C)c1ccccc1F [Example 165, 4-[2-(4-cyclopropylmethanesulfonylphenyl)acetamido]-N-(2-fluorophenyl)-N,2-dimethylbenzamide] | ≤ 100 |  |
| CCN(C(=O)c1ccc(NC(=O)Cc2ccc(S(=O)(=O)CC3CC3)cc2)cc1C)c1ccccc1Cl [Example 166, N-(2-chlorophenyl)-4-[2-(4-cyclopropylmethanesulfonylphenyl)acetamido]-N-ethyl-2-methylbenzamide] | ≤ 10 |  |
